# Legend:
# Assay type in all cases: cell-based
# HCT116 = assay: Colony formation assay (crystal violet); conditions: treated five days
# BT549 cells = assay: Gene expression by qRT-PCR (TUBB reference)
# Protocol: (§1) Cell culture and drug treatments. Cell lines were obtained from ATCC (American Type Culture Collection, Manassas, VA) and grown under standard conditions (5% CO2, 10% FBS (fetal bovine serum), with 5% antifungal/antibacterial). Cell lines were tested for Mycoplasma using the MycoAlert Mycoplasma Detection Kit (Lonza, Basel Switzerland, cat: LT07-218); all experiments were done with mycoplasma negative cells. U87MG cells were propagated in MEM (Minimal Essential Medium). BT549 and DBTRG cells were propagated in RPMI (Roswell Park Memorial Institute 1640 Medium). LN18, U118MG, A172 and LN229 cells were propagated in DMEM (Dulbecco's Modified Eagle Medium). Neurosphere/cancer stem cell cultures for U87MG and BT549 cell lines were plated with 40,000 cells per mL in 3D Tumorsphere Medium XF (Sigma cat: C-28070, Burlington, MA). BT549 cancer stem cell cultures were supplemented with 1XB27 XenoFree CTS (Gibco/Thermo Fisher Waltham, MA, USA). AS1842856 was purchased from Calbiochem (Danvers, MA) and utilized at 200 nM, 500 nM and 1 μM final concentrations as indicated. AS1708727 was purchased from MedChem Express (Monmouth Junction, NJ) and was used at 0.5 μM, 1.0 µM and 2.0 μM concentrations. 5-aza-2'-deoxycytidine (5-AZA) was purchased from Millipore/Sigma (Burlington, MA) and utilized at a final concentration of 3 μM. Total RNA was prepared using the Qiagen RNeasy kit (Hilden, Germany), which was then used to generate cDNA using Superscript Reverse Transcriptase II (Invitrogen, Carlsbad, CA). Samples (cDNAs) were analyzed using (Power SYBR Green Master Mix, Applied Biosystems, Foster City, CA) and the ABI Step-One Real-time system (Carlsbad, CA). Expression levels were normalized to Beta-Tubulin, TUBB in gene expression experiments and calculated using 2-4ACT method (Livak et al., 2001). Primer sequences are detailed in Table 1. MDA-MB-468 cells were grown to log phase in DMEM with 10% FBS without antibiotics. BT549 cells were grown to log phase in DMEM with 10% FBS without antibiotics. Cells were transfected with FOXO1 esiRNA (EHU156591 Sigma, St. Louis, MO) or EGFP control esiRNA (EHUEGFP) using Lipofectamine 3000 (utilized only […] reagent, Invitrogen, Carlsbad, CA).
# MDA-MB-468 cells = assay: Gene expression by qRT-PCR (TUBB reference)
# Protocol: as §1
# A172 = assay: Gene expression by qRT-PCR (TUBB reference); conditions: 1 μM for 48 hours
# Protocol: (§2) Cell culture and drug treatments. Cell lines were obtained from ATCC (American Type Culture Collection, Manassas, VA) and grown under standard conditions (5% CO2, 10% FBS (fetal bovine serum), with 5% antifungal/antibacterial). Cell lines were tested for Mycoplasma using the MycoAlert Mycoplasma Detection Kit (Lonza, Basel Switzerland, cat: LT07-218); all experiments were done with mycoplasma negative cells. U87MG cells were propagated in MEM (Minimal Essential Medium). BT549 and DBTRG cells were propagated in RPMI (Roswell Park Memorial Institute 1640 Medium). LN18, U118MG, A172 and LN229 cells were propagated in DMEM (Dulbecco's Modified Eagle Medium). Neurosphere/cancer stem cell cultures for U87MG and BT549 cell lines were plated with 40,000 cells per mL in 3D Tumorsphere Medium XF (Sigma cat: C-28070, Burlington, MA). BT549 cancer stem cell cultures were supplemented with 1XB27 XenoFree CTS (Gibco/Thermo Fisher Waltham, MA, USA). AS1842856 was purchased from Calbiochem (Danvers, MA) and utilized at 200 nM, 500 nM and 1 μM final concentrations as indicated. AS1708727 was purchased from MedChem Express (Monmouth Junction, NJ) and was used at 0.5 μM, 1.0 µM and 2.0 μM concentrations. 5-aza-2′-deoxycytidine (5-AZA) was purchased from Millipore/Sigma (Burlington, MA) and utilized at a final concentration of 3 μM. Total RNA was prepared using the Qiagen RNeasy kit (Hilden, Germany), which was then used to generate cDNA using Superscript Reverse Transcriptase II (Invitrogen, Carlsbad, CA). Samples (cDNAs) were analyzed using (Power SYBR Green Master Mix, Applied Biosystems, Foster City, CA) and the ABI Step-One Real-time system (Carlsbad, CA). Expression levels were normalized to Beta-Tubulin, TUBB in gene expression experiments and calculated using 2-4ACT method (Livak et al., 2001). Primer sequences are detailed in Table 1.
# DBTRG = assay: Gene expression by qRT-PCR (TUBB reference); conditions: 1 μM for 48 hours
# Protocol: as §2
# LN18 = assay: Gene expression by qRT-PCR (TUBB reference); conditions: 1 μM for 48 hours
# Protocol: as §2
# LN229 = assay: Gene expression by qRT-PCR (TUBB reference); conditions: 1 μM for 48 hours
# Protocol: as §2
# U87MG cells = assay: Gene expression by qRT-PCR (TUBB reference)
# Protocol: as §2
# [1] = tested on: HCT116 colon cancer cells; assay: Gene expression by qRT-PCR (TUBB reference); conditions: 48 hours
# BT549 CSCs = assay: Gene expression by qRT-PCR in cancer stem cells; conditions: 1 μM for 48 hours
# Protocol: as §2, with “AS1708727 was purchased from MedChem Express (Monmouth Junction, NJ) and was used at 0.5 μM, 1.0 µM and 2.0 μM concentrations. 5-aza-2′-deoxycytidine (5-AZA) was purchased from Millipore/Sigma (Burlington, MA) and utilized at a final concentration of 3 μM. Total RNA was prepared using the Qiagen RNeasy kit (Hilden, Germany), which was then used to generate cDNA using Superscript Reverse Transcriptase II (Invitrogen, Carlsbad, CA).” left out, “Primer sequences are detailed in Table 1.” left out
# U87MG CSCs = assay: Gene expression by qRT-PCR in cancer stem cells; conditions: 1 μM for 48 hours
# Protocol: as §2, with “AS1708727 was purchased from MedChem Express (Monmouth Junction, NJ) and was used at 0.5 μM, 1.0 µM and 2.0 μM concentrations. 5-aza-2′-deoxycytidine (5-AZA) was purchased from Millipore/Sigma (Burlington, MA) and utilized at a final concentration of 3 μM. Total RNA was prepared using the Qiagen RNeasy kit (Hilden, Germany), which was then used to generate cDNA using Superscript Reverse Transcriptase II (Invitrogen, Carlsbad, CA).” left out, “Primer sequences are detailed in Table 1.” left out
compound,measurement,setting,value
"CCn1cc(C(=O)O)c(=O)c2c(N)c(F)c(NC3CCCCC3)cc21 [AS1842856, 5-Amino-7-(cyclohexylamino)-1-ethyl-6-fluoro-4-oxo-1,4-dihydroquinoline-3-carboxylic acid]",colony formation,HCT116,Significantly reduced colony formation
same,"FAS and BIM gene induction, comparison of the two inhibitors",BT549 cells,robustly caused FAS and BIM
same,FOXO1 gene expression,BT549 cells; 1 μM for 48 hours,increased FOXO1 gene expression
same,apoptotic genes FAS and/or BIM expression,BT549 cells; 1 μM for 48 hours,induced apoptotic genes FAS and/or BIM
same,"FAS and BIM gene induction, comparison of the two inhibitors",MDA-MB-468 cells,robustly caused FAS and BIM
same,apoptotic genes FAS and/or BIM expression,MDA-MB-468 cells; 1 μM for 48 hours,induced apoptotic genes FAS and/or BIM
same,FOXO1 expression,MDA-MB-468 cells; 48 hours of treatment,decreased FOXO1 expression
same,apoptotic genes FAS and/or BIM expression,A172,induced apoptotic genes FAS and/or BIM
same,apoptotic genes FAS and/or BIM expression,DBTRG,induced apoptotic genes FAS and/or BIM
same,apoptotic genes FAS and/or BIM expression,LN18,induced apoptotic genes FAS and/or BIM
same,apoptotic genes FAS and/or BIM expression,LN229,induced apoptotic genes FAS and/or BIM
same,FAS expression,U87MG cells,induced
same,apoptotic genes FAS and/or BIM expression,U87MG cells; 1 μM for 48 hours,induced apoptotic genes FAS and/or BIM
same,FAS gene expression,[1],induced the FAS gene
same,FAS and BIM expression,BT549 CSCs,FAS and BIM were induced
same,FAS and BIM expression,U87MG CSCs,FAS and BIM were induced

# Source: patent publication US20240409934A1, “FOXO1-TARGETED THERAPY FOR THE TREATMENT OF CANCER” (BOARD OF REGENTS, THE UNIVERSITY OF TEXAS SYSTEM, priority 2021, published 2024)
